The source of these data is patent US10718029B2, “Treatment targeting oncology and neurodegeneration” (priority 2008, dated 2020).

The subject of one assay is TGF Béta. The settings on record: publication of Lecanda and Gold, March 2009; cited from earlier work.
The next assay addresses T1, PKCε (Homo sapiens, UniProt Q02156).
T1 construct: endogenous in cells; host or cells: MCF-7
T1 sequence (Q02156 1-737): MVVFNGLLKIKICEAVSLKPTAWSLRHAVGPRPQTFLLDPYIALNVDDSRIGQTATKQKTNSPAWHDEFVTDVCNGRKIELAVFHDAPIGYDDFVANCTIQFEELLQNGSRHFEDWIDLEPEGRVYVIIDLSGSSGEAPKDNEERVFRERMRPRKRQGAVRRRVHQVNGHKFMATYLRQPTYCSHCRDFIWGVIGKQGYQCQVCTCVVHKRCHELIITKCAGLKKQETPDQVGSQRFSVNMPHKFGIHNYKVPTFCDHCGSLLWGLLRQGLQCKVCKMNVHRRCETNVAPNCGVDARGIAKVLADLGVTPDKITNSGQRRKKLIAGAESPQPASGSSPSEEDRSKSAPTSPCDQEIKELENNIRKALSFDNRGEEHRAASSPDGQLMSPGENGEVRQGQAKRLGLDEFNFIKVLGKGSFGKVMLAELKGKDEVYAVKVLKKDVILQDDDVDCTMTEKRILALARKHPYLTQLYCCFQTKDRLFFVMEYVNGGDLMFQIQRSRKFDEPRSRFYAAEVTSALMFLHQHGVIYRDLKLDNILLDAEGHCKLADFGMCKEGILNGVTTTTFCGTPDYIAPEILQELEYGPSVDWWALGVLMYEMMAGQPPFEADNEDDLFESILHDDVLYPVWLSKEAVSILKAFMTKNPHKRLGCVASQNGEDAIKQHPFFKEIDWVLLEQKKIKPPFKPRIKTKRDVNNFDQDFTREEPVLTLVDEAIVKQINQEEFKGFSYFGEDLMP
The assay is described as follows: Western blotting of PKCε expression as a function of the duration of TPA treatment. It is filed as cell-based. The settings on record: MCF-7 cells. An excerpt: (§1) Western blotting study: Given that the protein sequence of LIV21 has putative PKCε phosphorylation sites, including two specific for PKCε, the inventor tested the variation in the expression of this PKC as a function of the duration of TPA treatment. […] The expression of PKCzeta (PKCζ) is used as an internal control since it is not sensitive to TPA.
A general note: In western blotting, separated proteins are transferred to a membrane and probed.

For another assay, the system named is estrogen receptors (ERs). The settings on record: MCF-7 cells, background statement; cited from earlier work.
The test system of the next assay is protein kinases C (PKCs). The settings on record: MCF-7 cells, background statement; cited from earlier work.
In a further assay the test system is MCF-7 line. Particulars: cited from earlier work.
In another assay the test system is normal breast cells. Particulars: background statement; cited from earlier work.
The subject of a further assay is p130. The assay is described as follows: Fluorescence localization of p130 in nuclei during TPA treatment. The class given is cell-based, human. The settings on record: TPA 25 nM, after 12 h. On the procedure: (§2) During this TPA treatment (25 nM), when E2F4, p130 and LIV21 were studied (green fluorescence) in the nuclei labelled (DNA) with propidium iodide (red fluorescence), the following were observed: […]

The subject of assay [1] is LIV21. The experiment in a line: Fluorescence localization of LIV21 in nuclei during TPA treatment. It is filed as cell-based, human. Particulars: TPA 25 nM, after 12 h. Here is the method: as §2
Another assay relates to MCF-7 cells. Particulars: background statement; cited from earlier work.
The subject of assay [2] is LIV21. Particulars: TPA-treated MCF-7 lines; cited from earlier work.
The test system of another assay is PKCzeta (PKCζ). The assay is described as follows: Western blotting of PKCzeta expression (internal control) under TPA treatment. The class given is cell-based, human.
Text: as §1

In a further assay the test system is cells of benign tumors. Particulars: background statement; cited from earlier work.
For assay [3], the system named is LIV21. The experiment in a line: Cell fractionation, LIV21 expression profile in cytoplasm and nuclear fraction. The class given is cell-based, human. Particulars: cultures treated with peptide at 2 μM compared with TPA-treated cultures. The source says:
The study of the specific role of the PKC epsilon on the nuclear translocation of Liv 21F can use a peptide which inhibits function PKC epsilon and the translocation like previously described but also according to the protocol of reference of Si RNA of PKC epsilon. The profile of expression observed corresponds to a doublet of tapes in the cytoplasm with approximately 51 KD (and with a tape of 64 kD according to the siRNA used) whereas it corresponds only to one simple tape with 50 kD in the nuclear fraction.

The subject of the next assay is E2F4. The experiment in a line: Fluorescence localization of E2F4 in nuclei during TPA treatment. The class given is cell-based, human. The settings on record: TPA 25 nM. Here is the method: as §2
The subject of assay [4] is LIV21. The experiment in a line: Immunocytochemistry of the nuclear translocation of LIV21. The class given is cell-based, human. Particulars: peptide 2 μM, 12 h, compared with TPA 25 nM. An excerpt:
To determine the specific action of PKCε on the translocation of LIV21, the crops were discussed with a peptide, selective antagonist of the function and translocation of this PKC (EAVSLKPT (SEQ ID No 6), and the results were compared with those obtained by processing with TP A. This peptide is recognized by the enzyme and links themselves as a substrate amended to the level of its catalytic site. Not phosphorylable, he acts as a specific inhibitor of the activity of PKCε.
The effect of the selective inhibition of the activity of PKCε on the nuclear translocation of LIV21 was studied by immunocytochemistry.

A further assay deals with T2, PKC (Homo sapiens, UniProt Q02156).
T2 construct: endogenous in cells; host or cells: MCF-7
T2 sequence (Q02156 1-737): T1 sequence (Q02156 1-737)
The settings on record: PKC-specific inhibitory peptide; cited from earlier work.

Where two headings read alike, the source gives them in different places.

`Fc1ccc(Cl)cc1-c1nc(Nc2ccncc2)c2nccnc2n1` [SD208]: the “TGF Béta events (increase and nuclear accumulation of p27 via smad 2 and smad 3)” value with TGF Béta is “All these events are locked”.

`CCCCCCCCCCCCCC(=O)O[C@@H]1[C@@H](C)[C@@]2(O)[C@@H](C=C(CO)C[C@]3(O)C(=O)C(C)=C[C@@H]23)[C@H]2C(C)(C)[C@]12OC(C)=O` [TPA, 12-0-tetradecanoyl phorbol-13-10 sumoate]: the PKCε expression entry at PKCε is listed as “decreases from 30 min”. In the assay on estrogen receptors (ERs), the “expression and function of estrogen receptors (ERs)” value is “greatly and rapidly inhibits”. Also, the “translocation of protein kinases C (PKCs) from the cytosol to the membranes” value in the assay on protein kinases C (PKCs) was “induces the time- and dose-dependent translocation”. In addition, in the assay with MCF-7 line (TPA-treated MCF-7 lines), the cancerous proliferation entry was “inhibition of cancerous proliferation”. Further, the cell differentiation entry with MCF-7 line (TPA-treated MCF-7 lines) is “cell differentiation”. The “proliferation of the cells of human mammary tumor lines such as the MCF-7 line” value in the assay on MCF-7 line (background statement) was “drastically inhibits the proliferation”. In addition, the “growth of normal breast cells” value with normal breast cells is listed as “activates the growth”. Also, the p130 localization entry with p130 is listed as “intranuclear green fluorescence signals”. Besides, the LIV21 localization result in the assay with LIV21 [1] is reported as “intranuclear green fluorescence signals”; with LIV21 [2], “translocated into the nucleus”. Besides, the “migratory capacity of MCF-7 cells in vitro” value with MCF-7 cells is reported as “increases the migratory capacity”. Further, the “expression of PKCzeta (PKCζ)” value with PKCzeta (PKCζ) is recorded as “not sensitive”. Further, in the assay with cells of benign tumors, the “proliferation of the cells of benign tumors” value was “does not modify the proliferation”. In addition, the LIV21 expression profile entry in the assay with LIV21 [3] is “doublet in the cytoplasm and of a single band in the nuclear fraction”. Also, the figures for the E2F4 localization entry in the assay on E2F4 (after 12 h), in the assay on E2F4 (after 48 h) and in the assay on E2F4 (at 72 h) were “intranuclear green fluorescence signals”, “comparable localization” and “disappears from the nucleus”, respectively.

With EAVSLKPT [PKC inhibiting peptide], in the assay with LIV21 [4], the “nuclear translocation of LIV21” value is “effect identical to that of TPA”. For the same compound, the “PKC activity versus expression” value at PKC was “it was the activity and not the expression of PKC which was inhibited”. In the assay on LIV21 [3], the LIV21 expression profile entry is “doublet in the cytoplasm and of a single band in the nuclear fraction”.
